# Source: ChEMBL document CHEMBL1201862, “PubChem BioAssay data set” (2004)
# Activity calls are given as the source filed them.
# Tests used:
# [1] = molecular target: T1, RNA-binding protein pos-1 (Caenorhabditis elegans, UniProt G5EF15); assay: disruptors of C. elegans POS-1 RNA interaction – biochemical, fluorescence polarization, dose response (AID 1964);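 also: purified POS-1 fused to maltose binding protein made in E. coli; potency of compounds blocking POS-1 binding to fluorescent RNA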
# T1 sequence (G5EF15 whole entry): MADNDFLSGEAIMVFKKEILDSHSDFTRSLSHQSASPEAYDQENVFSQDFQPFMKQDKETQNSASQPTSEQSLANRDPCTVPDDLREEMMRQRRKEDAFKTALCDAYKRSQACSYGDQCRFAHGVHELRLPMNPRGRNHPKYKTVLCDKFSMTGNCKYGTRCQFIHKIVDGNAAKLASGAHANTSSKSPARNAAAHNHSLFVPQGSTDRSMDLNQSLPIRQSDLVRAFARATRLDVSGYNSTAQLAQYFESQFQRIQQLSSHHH
# [2] = molecular target: T2, High affinity choline transporter 1 (Homo sapiens, UniProt Q9GZV3); assay: human choline transporter blockers, potency – cell-based, 5-point CRC, membrane potential dye, dose response (AID 504840); format: functional
# T2 sequence (Q9GZV3 whole entry): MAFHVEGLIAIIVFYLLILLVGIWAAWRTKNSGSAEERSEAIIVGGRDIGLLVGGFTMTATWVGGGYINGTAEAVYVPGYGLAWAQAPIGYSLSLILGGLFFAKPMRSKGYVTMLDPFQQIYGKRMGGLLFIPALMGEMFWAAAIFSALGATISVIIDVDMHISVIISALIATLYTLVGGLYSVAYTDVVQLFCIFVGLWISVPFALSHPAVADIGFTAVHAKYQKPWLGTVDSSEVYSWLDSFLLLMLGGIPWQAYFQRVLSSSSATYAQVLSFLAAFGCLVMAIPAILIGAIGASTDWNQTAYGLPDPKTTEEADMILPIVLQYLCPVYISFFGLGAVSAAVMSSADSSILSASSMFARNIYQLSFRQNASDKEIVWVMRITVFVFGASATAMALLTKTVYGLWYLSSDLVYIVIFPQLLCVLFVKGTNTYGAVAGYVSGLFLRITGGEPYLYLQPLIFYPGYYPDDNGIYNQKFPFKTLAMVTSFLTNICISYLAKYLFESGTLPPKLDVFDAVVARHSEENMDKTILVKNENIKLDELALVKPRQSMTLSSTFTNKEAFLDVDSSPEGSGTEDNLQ
# [3] = molecular target: T3, Zinc finger protein mex-5 (Caenorhabditis elegans, UniProt Q9XUB2); assay: potency of MEX-5 RNA-binding blockers – biochemical, C. elegans, fluorescence polarization, dose response (AID 1960)
# T3 sequence (Q9XUB2 whole entry): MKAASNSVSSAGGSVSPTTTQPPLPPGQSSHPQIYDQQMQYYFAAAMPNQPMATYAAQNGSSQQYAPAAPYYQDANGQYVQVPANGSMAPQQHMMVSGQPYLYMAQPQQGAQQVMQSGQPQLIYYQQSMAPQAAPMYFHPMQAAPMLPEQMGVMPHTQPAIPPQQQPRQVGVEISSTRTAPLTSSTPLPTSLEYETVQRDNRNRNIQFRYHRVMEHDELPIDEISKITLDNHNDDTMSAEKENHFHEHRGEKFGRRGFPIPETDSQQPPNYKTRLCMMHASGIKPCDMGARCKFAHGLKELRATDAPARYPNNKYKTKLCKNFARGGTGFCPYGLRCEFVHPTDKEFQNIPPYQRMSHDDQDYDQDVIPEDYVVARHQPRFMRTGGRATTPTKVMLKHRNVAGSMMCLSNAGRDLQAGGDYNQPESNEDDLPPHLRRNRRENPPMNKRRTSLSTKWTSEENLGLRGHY
# [4] = ATP-based viability loss in HepG2 cells – cell-based, CellTiter-Glo luminescence, dry powder, set 3, cytotoxicity control, dose response (AID 720594); format: functional
# [5] = ATP-based viability loss in HEK293T cells – cell-based, CellTiter-Glo luminescence, dry powder, set 2, cytotoxicity control, dose response (AID 720595); format: functional; conditions: HEK293
# [6] = ATP-based viability loss in HeLa cells – cell-based, CellTiter-Glo luminescence, dry powder, set 2, cytotoxicity control, dose response (AID 720593); format: functional
# [7] = inhibitors acting on PAX2 in cells – cell-based, plate reader, dry powder samples, selectivity assay for PAX8 inhibitor project, dose response (AID 743048); format: functional;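 also: HEK293 cells carrying a WT1 promoter luciferase reporter driven by expressed Pax2; potency is for inhibition of Pax2 driven reporter signal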
# [8] = HEK-293T cell viability reduction – luminescence, B-cell screen hits, cytotoxicity control for BCR NF-kB inhibitor project, dose response (AID 489021); format: functional, cell-based;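 also: HEK-293T cells carrying an NF-kB luciferase reporter; cells exposed to compound for about 14 hours before viability readout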
# [9] = OVCAR4 cell viability loss – plate reader, dry powder, SA11, cytotoxicity control for PAX8 inhibitor project, dose response (AID 743150); format: functional, cell-based; conditions: OVCAR-4
# [10] = PAX8-dependent cell viability loss – plate reader, dry powder, dose response (AID 743049); format: functional, cell-based
# Paired box protein Pax-8 = Paired box protein Pax-8 (Homo sapiens, UniProt Q06710); assay: PAX8 transcriptional activity inhibition in RMG-I – RMG-I cells, luciferase, cherry-pick, dose response (AID 687027); format: functional, cell-based;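 also: luciferase reporter driven by Pax8 target thyroperoxidase promoter measured by SteadyGlo luminescence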
# [11] = PAX5 cellular inhibition readout – cell-based, plate reader, dry powder samples, selectivity assay for PAX8 inhibitor project, dose response (AID 743047); format: functional;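 also: HEK293 cells carrying a Pax5 driven CD19 promoter luciferase reporter; potency of inhibitors that lower reporter luminescence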
# [12] = COV434 cell viability loss – plate reader, dry powder, SA7, cytotoxicity control for PAX8 inhibitor project, dose response (AID 743145); format: functional, cell-based
# [13] = IGROV1 cell killing – plate reader, dry powder samples, PAX8 inhibitor project, dose response (AID 743043); format: functional, cell-based; conditions: IGROV-1
# [14] = molecular target: NAD-dependent protein deacylase sirtuin-5, mitochondrial (Homo sapiens, UniProt Q9NXA8); assay: sirtuin-5 deacylation blockers, concentration series – biochemical, fluorescence imaging, cherry-pick, set 5, dose response (AID 720591);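 also: desuccinylation of succinyl peptide AMC substrate read as fluorescence after trypsin release; potency of inhibitors that lower fluorescence and may act on trypsin instead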
# [15] = inhibitors of TRPM1-promoter reporter in SK-MEL-5 – cell-based, luciferase, dry powder, set 9, MITF inhibitor project, dose response (AID 651588); format: functional
# [16] = MITF Orthogonal Assay: MALME3 CTG Assay Measured in Cell-Based System Using Plate Reader - 2084-04_Inhibitor_Dose_DryPowder_Activity_Set6.; format: functional; conditions: MALME-3
# [17] = MITF Measured in Cell-Based System Using Plate Reader - 2084-01_Inhibitor_Dose_DryPowder_Activity_Set7.; format: functional
# [18] = cytotoxicity in MITF-independent A375 cells – cell-based, CellTiter-Glo luminescence, dry powder, set 4, counter-screen for MITF inhibitor project, dose response (AID 624364); format: functional; conditions: A-375;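 also: A375 melanoma cells are MITF independent so this is a counter screen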
# [19] = MITF Measured in Cell-Based System Using Plate Reader - 2084-01_Inhibitor_Dose_DryPowder_Activity_Set6.; format: functional
# [20] = viability loss in MITF-independent A375 cells – cell-based, CellTiter-Glo luminescence, dry powder, set 6, counter-screen for MITF inhibitor project, dose response (AID 624488); format: functional; conditions: A-375
# [21] = cytotoxicity in melanoma parental cells – cell-based, CellTiter-Glo, dry powder, set 6, MITF inhibitor project, dose response (AID 624429); format: functional; conditions: SK-MEL-5
# [22] = viability loss in MITF-independent A375 cells – cell-based, CellTiter-Glo luminescence, dry powder, set 7, counter-screen for MITF inhibitor project, dose response (AID 624490); format: functional; conditions: A-375
# [23] = growth inhibition of MALME3 cells – cell-based, CellTiter-Glo luminescence, dry powder, set 5, orthogonal assay for MITF inhibitor project, dose response (AID 651584); format: functional; conditions: MALME-3
# [24] = MITF Orthogonal Assay: SK-MEL-5 CTG Assay Measured in Cell-Based System Using Plate Reader - 2084-02_Inhibitor_Dose_DryPowder_Activity_Set5.; format: functional
# [25] = growth inhibition of SK-MEL-5 melanoma cells – cell-based, CellTiter-Glo luminescence, dry powder, set 8, orthogonal assay for MITF inhibitor project, dose response (AID 651586); format: functional
# Sequence of Paired box protein Pax-8 (Q06710 whole entry): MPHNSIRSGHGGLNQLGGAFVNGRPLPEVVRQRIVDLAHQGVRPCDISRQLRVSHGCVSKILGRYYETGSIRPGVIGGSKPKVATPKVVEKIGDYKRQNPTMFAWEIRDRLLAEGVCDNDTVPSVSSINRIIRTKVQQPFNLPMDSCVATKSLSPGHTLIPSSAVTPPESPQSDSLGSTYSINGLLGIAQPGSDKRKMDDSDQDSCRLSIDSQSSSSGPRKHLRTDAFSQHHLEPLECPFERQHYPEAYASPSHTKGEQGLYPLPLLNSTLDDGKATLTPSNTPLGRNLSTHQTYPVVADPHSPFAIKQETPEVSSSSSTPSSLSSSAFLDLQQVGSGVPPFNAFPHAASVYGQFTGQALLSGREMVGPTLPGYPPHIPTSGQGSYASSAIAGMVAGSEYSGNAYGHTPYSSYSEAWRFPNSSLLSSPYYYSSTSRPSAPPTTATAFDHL
# Sequence of NAD-dependent protein deacylase sirtuin-5, mitochondrial (Q9NXA8 whole entry): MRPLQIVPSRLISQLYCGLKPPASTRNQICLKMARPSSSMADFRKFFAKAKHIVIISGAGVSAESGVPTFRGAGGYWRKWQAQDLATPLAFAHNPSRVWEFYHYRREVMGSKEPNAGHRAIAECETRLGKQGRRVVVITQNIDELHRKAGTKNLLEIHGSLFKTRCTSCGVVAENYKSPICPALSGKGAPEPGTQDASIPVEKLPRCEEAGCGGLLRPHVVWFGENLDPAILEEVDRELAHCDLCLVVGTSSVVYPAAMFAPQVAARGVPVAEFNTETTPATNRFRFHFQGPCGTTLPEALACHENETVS
smiles,measurement,setting,value
CCn1c2ccccc2c(=O)c2ccccc21,EC50,[1],> 300 µM (not active)
same,AC50,cells,1.59 µM (active)
same,IC50,[2],15.1 µM (active)
same,EC50,[3],> 300 µM (not active)
CC(C)C(=O)NC(c1ccco1)c1cc(Cl)c2cccnc2c1O (configuration not stated),AC50,[4],> 52 µM (inactive)
same,AC50,[5],8.31 µM (active)
same,AC50,[6],28.3 µM (active)
CCN(CC(=O)Nc1c(F)cccc1F)C(=O)c1cc(S(=O)(=O)N(C)C)ccc1N1CCCC1,AC50,[7],88.8 µM (active)
same,IC50,[8],> 80 µM (inactive)
same,AC50,[9],58.9 µM (active)
same,AC50,[10],39.3 µM (active)
same,AC50,Paired box protein Pax-8,7.72 µM (active)
same,AC50,[11],73.1 µM (active)
same,AC50,[12],29.4 µM (active)
same,AC50,[13],14.2 µM (active)
COc1ccc(C)cc1NC(=O)CCN1CC(C)OC(C)C1 (configuration not stated),AC50,[14],> 30 µM (inactive)
NC1=C(NS(=O)(=O)c2ccccc2)C(=O)c2ccccc2C1=O,AC50,[15],15.8 µM (active)
same,AC50,[16],22.6 µM (active)
same,AC50,[17],4.7 µM (active)
same,AC50,[18],> 70 µM (inactive)
same,AC50,[19],7 µM (active)
same,AC50,[20],54.6 µM (active)
same,AC50,[21],16.1 µM (active)
same,AC50,[22],> 70 µM (inactive)
same,AC50,[23],22.6 µM (active)
same,AC50,[24],16.1 µM (active)
same,AC50,[25],17.5 µM (active)
